Read-outs that look alike come from different tables or passages of the source.

One series has as its system HBV. Nature of the series: Anti-HBV activity in HepG2.2.15 cells (HBV DNA in culture medium by qPCR). Format: cell-based. To be noted: Hepatitis B virus, HepG2.2.15, 144 h. In outline:
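HepG2.2.15 cells in 2% FBS medium at 37 °C were treated with compounds for 6 days, with medium and compound refreshed at day 3; 1:3 dilutions, 8 concentrations in triplicate, top 10 or 1 uM. HBV DNA in culture medium quantified by qPCR to derive EC50; CC50 from parallel plates (top 100 uM).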

Series [1] is described as follows: Cytotoxicity determination in HepG2.2.15 cells (CCK-8 cell viability). In kind it is cell-based. To be noted: human, 6 days treatment, CCK-8 assay, highest concentration 100 uM. In outline: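 HepG2.2.15 cells seeded at 5,000 cells/well in 2% FBS medium, exposed 6 days to compounds (8-point 1:3 dilutions from 100 uM, triplicate), refreshed at day 3. Viability read by CCK-8 after 2.5 h at 37° C, absorbance 450 nm with 630 nm reference; CC50 calculated.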
For orientation: Formazan colour is commonly taken as a measure of viable cells.

Setting [2] is: HepG2.2.15 cells, 6 days treatment, HBV DNA in culture medium quantified by real-time PCR, read-out: EC50.

Consider `CCOC(=O)C1=C(CN2CC(F)(F)[C@@H]3[C@H]2CN(C(=O)C(F)F)N3CCC(C)(C)C(=O)O)NC(c2nccs2)=N[C@H]1c1cccc(F)c1C` (single isomer, unassigned) [Compound 75], for which the EC50 with HBV was 40 nM. Further, half-maximal cytotoxicity in series [1] (CC50 at 6 days) was put at 22600 nM.

As to `CCOC(=O)C1=C(CN2CC(F)(F)[C@@H]3[C@H]2CN(C(N)=O)N3CCC(C)(C)C(=O)O)NC(c2nccs2)=N[C@H]1c1cccc(F)c1C` (single isomer, unassigned) [Compound 76A], the EC50 in the series with HBV (setting [2]) came to 11 nM. For the same compound, the CC50 at 6 days in series [1] worked out at 28200 nM.

As to `CCOC(=O)C1=C(CN2CC(F)(F)[C@H]3[C@@H]2CN(C(C)=O)N3CCC(C)(C)C(=O)O)NC(c2nccs2)=N[C@H]1c1ccc(F)c(F)c1Cl` (single isomer, unassigned) [Compound 77B, 4-((cis)-2-acetyl-4-((6-(2-chloro-3,4-difluorophenyl)-5-(ethoxycarbonyl)-2-(thiazol-2-yl)-3,6-dihydropyrimidin-4-yl)methyl)-6,6-difluorohexahydropyrrolo[3,2-c]pyrazol-1(2H)-yl)-2,2-dimethylbutanoic acid], in the series with HBV (setting [2]), the EC50 is 15 nM. The same compound returned a CC50 at 6 days in series [1] of 17500 nM.

Consider `COC(=O)C1=C(CN2CC(F)(F)[C@@H]3[C@H]2CN(C(C)=O)N3CCC(C)(C)C(=O)O)NC(c2nccs2)=N[C@H]1c1ccc(F)c(F)c1Cl` (single isomer, unassigned) [Compound 79A, 4-((cis)-2-acetyl-4-((6-(2-chloro-3,4-difluorophenyl)-5-(methoxycarbonyl)-2-(thiazol-2-yl)-3,6-dihydropyrimidin-4-yl)methyl)-6,6-difluorohexahydropyrrolo[3,2-c]pyrazol-1(2H)-yl)-2,2-dimethylbutanoic acid], for which, in the series on HBV (setting [2]), the EC50 stood at 40 nM. Also, in series [1], the CC50 at 6 days is over 50000 nM.

`COC(=O)C1=C(CN2CC(F)(F)[C@H]3[C@@H]2CN(C(C)=O)N3CCC(C)(C)C(=O)O)NC(c2nccs2)=N[C@H]1c1ccc(F)c(F)c1Cl` (single isomer, unassigned) [Compound 79B, 4-((cis)-2-acetyl-4-((6-(2-chloro-3,4-difluorophenyl)-5-(methoxycarbonyl)-2-(thiazol-2-yl)-3,6-dihydropyrimidin-4-yl)methyl)-6,6-difluorohexahydropyrrolo[3,2-c]pyrazol-1(2H)-yl)-2,2-dimethylbutanoic acid]: in the series with HBV (setting [2]), the EC50 is 27 nM. The compound also yielded a CC50 at 6 days in series [1] of 54900 nM.

With `CCOC(=O)C1=C(CN2CC(F)(F)[C@H]3[C@@H]2CN(C(C)=O)N3CCC(C)(C)C(=O)O)NC(c2nccs2)=N[C@@H]1c1ccc(F)c(F)c1C` (single isomer, unassigned) [Compound 80B, 4-((cis)-2-acetyl-4-((6-(3,4-difluoro-2-methylphenyl)-5-(ethoxycarbonyl)-2-(thiazol-2-yl)-3,6-dihydropyrimidin-4-yl)methyl)-6,6-difluorohexahydropyrrolo[3,2-c]pyrazol-1(2H)-yl)-2,2-dimethylbutanoic acid], in the series with HBV (setting [2]), the EC50 was 8 nM. Also, in series [1], the CC50 at 6 days worked out at 24100 nM.

`CCOC(=O)C1=C(CN2CC(F)(F)[C@H]3[C@@H]2CN(C(C)=O)N3CCC(C)(C)C(=O)O)NC(c2nccs2)=N[C@H]1c1cccc(F)c1Cl` (single isomer, unassigned) [Compound 81B, 4-((cis)-2-acetyl-4-((6-(2-chloro-3-fluorophenyl)-5-(ethoxycarbonyl)-2-(thiazol-2-yl)-3,6-dihydropyrimidin-4-yl)methyl)-6,6-difluorohexahydropyrrolo[3,2-c]pyrazol-1(2H)-yl)-2,2-dimethylbutanoic acid]: in the series with HBV (setting [2]), the EC50 turned out to be 13 nM. Further, in series [1], the CC50 at 6 days was determined as 35900 nM.

For the compound `COC(=O)C1=C(CN2CC(F)(F)[C@H]3[C@@H]2CN(C(C)=O)N3CCC(C)(C)C(=O)O)NC(c2nccs2)=N[C@H]1c1ccc(F)c(F)c1C` (single isomer, unassigned) [Compound 82B, 4-((cis)-2-acetyl-4-((6-(3,4-difluoro-2-methylphenyl)-5-(methoxycarbonyl)-2-(thiazol-2-yl)-3,6-dihydropyrimidin-4-yl)methyl)-6,6-difluorohexahydropyrrolo[3,2-c]pyrazol-1(2H)-yl)-2,2-dimethylbutanoic acid], in the series on HBV (setting [2]), the EC50 worked out at 37 nM. In addition, the CC50 at 6 days in series [1] amounted to 46900 nM.

As to `CCOC(=O)C1=C(CN2CC(F)(F)[C@@H]3[C@H]2CN(C(C)=O)N3CCC(C)(C)C(=O)O)NC(c2nccs2)=N[C@H]1c1ccc(F)c(F)c1F` (single isomer, unassigned) [Compound 83A, 4-((cis)-2-acetyl-4-((5-(ethoxycarbonyl)-2-(thiazol-2-yl)-6-(2,3,4-trifluorophenyl)-3,6-dihydropyrimidin-4-yl)methyl)-6,6-difluorohexahydropyrrolo[3,2-c]pyrazol-1(2H)-yl)-2,2-dimethylbutanoic acid], in the series on HBV (setting [2]), the EC50 was determined as 46 nM. In series [1], this compound had a CC50 at 6 days of 73500 nM.

Take `CCOC(=O)C1=C(CN2CC(F)(F)[C@H]3[C@@H]2CN(C(C)=O)N3CCC(C)(C)C(=O)O)NC(c2nccs2)=N[C@H]1c1ccc(F)c(F)c1F` (single isomer, unassigned) [Compound 83B, 4-((cis)-2-acetyl-4-((5-(ethoxycarbonyl)-2-(thiazol-2-yl)-6-(2,3,4-trifluorophenyl)-3,6-dihydropyrimidin-4-yl)methyl)-6,6-difluorohexahydropyrrolo[3,2-c]pyrazol-1(2H)-yl)-2,2-dimethylbutanoic acid]: the EC50 in the series on HBV (setting [2]) came out at 35 nM. Also, half-maximal cytotoxicity in series [1] (CC50 at 6 days) was put at 39000 nM.

With `COC(=O)C1=C(CN2CC(F)(F)[C@@H]3[C@H]2CN(C(C)=O)N3CCC(C)(C)C(=O)O)NC(c2nccs2)=N[C@H]1c1cccc(F)c1Cl` (single isomer, unassigned) [Compound 84A], the EC50 with HBV (setting [2]) is 52 nM. For the same compound, the CC50 at 6 days in series [1] was over 100000 nM.

Regarding `CCOC(=O)C1=C(CN2CC(F)(F)[C@@H]3[C@H]2CN(C(=O)C2(F)CC2)N3CCC(C)(C)C(=O)O)NC(c2nccs2)=N[C@H]1c1cccc(F)c1C` (single isomer, unassigned) [Compound 85], the EC50 in the series on HBV (setting [2]) came out at 69 nM. Further, the CC50 at 6 days in series [1] was determined as 22600 nM.

`CCOC(=O)C1=C(CN2CC(F)(F)[C@@H]3[C@H]2CN(C=O)N3CCC(C)(C)C(=O)O)NC(c2nccs2)=N[C@H]1c1cccc(F)c1C` (single isomer, unassigned) [Compound 86]: the EC50 in the series on HBV (setting [2]) worked out at 130 nM. Moreover, the CC50 at 6 days in series [1] is over 50000 nM.

For `CCOC(=O)C1=C(CN2CC(F)(F)[C@H]3[C@@H]2C(=O)N(CC(C)(C)C(=O)O)N3C)NC(c2nccs2)=N[C@H]1c1cccc(F)c1C` (single isomer, unassigned) [Compound 88], the EC50 in the series on HBV (setting [2]) was determined as 1.5 nM. This compound returned a CC50 at 6 days in series [1] of 60000 nM.

In the case of `CCOC(=O)C1=C(CN2CC(F)(F)[C@@H]3[C@H]2CN(C(C)C)N3CCC(C)(C)C(=O)O)NC(c2nccs2)=N[C@H]1c1cccc(F)c1C` (single isomer, unassigned) [Compound 89], in the series on HBV (setting [2]), the EC50 stood at 60 nM. The compound further had a CC50 at 6 days in series [1] of over 3120 nM.

As for `CCOC(=O)C1=C(CN2CC(F)(F)[C@@H]3[C@H]2CN(CC)N3CCC(C)(C)C(=O)O)NC(c2nccs2)=N[C@H]1c1cccc(F)c1C` (single isomer, unassigned) [Compound 90], the EC50 in the series with HBV (setting [2]) was 20.5 nM. Also, the CC50 at 6 days in series [1] worked out at 19200 nM.

As to `CCOC(=O)C1=C(CN2CC(F)(F)[C@@H]3[C@H]2CN(CC(F)F)N3CCC(C)(C)C(=O)O)NC(c2nccs2)=N[C@H]1c1cccc(F)c1C` (single isomer, unassigned) [Compound 91], the EC50 in the series on HBV (setting [2]) is 71 nM. Further, the CC50 at 6 days in series [1] is 8800 nM.

Usually EC50 stands for the concentration at which the effect is half-maximal. As usually defined, the CC50 is the concentration at which the toxic effect on the cells reaches its halfway point.

Values taken from patent US20230083012A1, “DIHYDROPYRIMIDINE DERIVATIVES AND USES THEREOF IN THE TREATMENT OF HBV INFECTION OR OF HBV-INDUCED DISEASES” (priority 2019, published 2023).
